According to ChEMBL document CHEMBL1671711, “Serum and cerebrospinal fluid levels of colistin in pediatric patients” (Antimicrob Agents Chemother, 2010):
≈ marks a conversion by molar mass, not a printed value.

System: Acinetobacter baumannii
Test: Antimicrobial activity against Acinetobacter baumannii
Type: functional

SMILES: C[C@@H](O)[C@H]1C(=O)N2C(C(=O)O)=C(S[C@@H]3CN[C@H](C(=O)N(C)C)C3)[C@H](C)[C@H]12 [MEROPENEM]
- MIC: 8 µg/mL (≈ 20.9 µM)
